# Measured values taken from patent US6339160B1 (priority 1997, dated 2002).
# Key:
# [1] = target: Adamalysin II (Crotalus adamanteus, UniProt P34179); assay: biochemical
# [2] = target: T1, Gelatinase A (MMP-2) (Homo sapiens, UniProt P08253); assay: Inhibition of the human enzyme Gelatinase A (MMP-2), fluorescent substrate; format: biochemical; conditions: expressed qualitatively; compounds incubated 3 hours at room temperature with enzyme before substrate
# T1 construct: G. Murphy (Strangeways Labs., Cambridge, UK); host or cells: human cultures
# T1 sequence (P08253 110-660): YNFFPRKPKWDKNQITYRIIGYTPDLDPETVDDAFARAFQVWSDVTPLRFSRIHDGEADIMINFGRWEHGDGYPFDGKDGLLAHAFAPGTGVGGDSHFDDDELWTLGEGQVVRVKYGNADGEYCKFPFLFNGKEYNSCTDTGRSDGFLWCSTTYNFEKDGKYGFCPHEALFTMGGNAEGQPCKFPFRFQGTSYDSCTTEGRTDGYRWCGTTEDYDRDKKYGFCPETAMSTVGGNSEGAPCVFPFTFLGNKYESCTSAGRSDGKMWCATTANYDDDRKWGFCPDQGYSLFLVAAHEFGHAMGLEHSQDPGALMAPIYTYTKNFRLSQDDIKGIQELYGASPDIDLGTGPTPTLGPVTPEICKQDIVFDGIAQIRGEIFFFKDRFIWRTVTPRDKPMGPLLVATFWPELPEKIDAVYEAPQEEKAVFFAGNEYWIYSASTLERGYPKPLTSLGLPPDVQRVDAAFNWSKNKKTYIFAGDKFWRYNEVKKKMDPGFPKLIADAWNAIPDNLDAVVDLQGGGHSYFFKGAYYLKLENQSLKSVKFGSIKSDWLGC
# Protocol: (§1) The snythetized compounds were also tested on the enzyme of human orgin Gelatinase A, known also as MMP-2 (Matrix Metalloproteinase n. 2). The pure enzyme, extracted from human cultures and obtained from Pro. G. Murphy (Strangeways Labs., Cambridge, UK), was first activated with p-amino-mercuryacetate, and proteolytic activity was evidentiated with the use of an artificial fluorescent substratum MCA-PRO-LEU-GLY-LEU-DPA-ALA-ARG-NH2 (Strangeways Labs.), in spectrofluorimeter Perkin Elmer L 50B fixed at 328 nm for excitation and 393 nm for emission. To test inhibitory activity, synthetized compounds were incubated for 3 hours at room temperature in the presence of the enzyme, before adding the substratum.
# [3] = target: T2, Collagenase from neutrophiles (MMP-8) (Homo sapiens, UniProt P22894); assay: Inhibition of human enzyme Collagenase from neutrophiles (MMP-8), fluorescent substrate; format: biochemical; conditions: expressed qualitatively; enzyme activated with p-aminomercuryacetate
# T2 construct: G. Murphy (Strangeways Labs., Cambridge, UK); host or cells: human cell cultures
# T2 sequence (P22894 101-467): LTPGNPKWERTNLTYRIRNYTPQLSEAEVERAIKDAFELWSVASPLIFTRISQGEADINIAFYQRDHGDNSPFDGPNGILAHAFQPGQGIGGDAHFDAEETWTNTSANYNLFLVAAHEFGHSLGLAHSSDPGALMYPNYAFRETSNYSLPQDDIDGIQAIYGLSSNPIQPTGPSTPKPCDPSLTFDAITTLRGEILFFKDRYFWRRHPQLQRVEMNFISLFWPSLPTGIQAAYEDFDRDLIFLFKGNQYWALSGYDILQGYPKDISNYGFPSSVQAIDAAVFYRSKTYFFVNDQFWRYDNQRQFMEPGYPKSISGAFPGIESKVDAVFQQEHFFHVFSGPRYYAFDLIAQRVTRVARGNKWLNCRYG
# Protocol: as §1
# The new synthetized derivatives were also tested on another zinc-dependent metalloproteinase of human orgin: the Collagenase from neutrophiles, also known as MMP-8 (Matrix Metalloproteinase N. 8). The pure enzyme extracted from human cell cultures and obtained from Prof. G. Murphy (Strangeways Labs., Cambridge, UK), was activated with p-aminomercuryacetate (2 hours at 37° C.), and enzymatic activity was followed by the spectrofluorimeter in the same way as described in the previous chapter.
# Adamalysin II, sequence (P34179 whole entry, looked up): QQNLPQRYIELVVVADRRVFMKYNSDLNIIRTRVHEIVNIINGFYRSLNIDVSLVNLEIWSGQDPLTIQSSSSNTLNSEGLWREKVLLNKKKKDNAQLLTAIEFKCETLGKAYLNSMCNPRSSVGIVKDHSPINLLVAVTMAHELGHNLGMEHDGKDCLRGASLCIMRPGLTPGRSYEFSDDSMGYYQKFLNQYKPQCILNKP
SMILES,IC50 [1] [nM],INHIBITION [2],INHIBITION [3]
"CCOP(=O)(OCC)C(Cc1c[nH]c2ccccc12)NC(=O)[C@H](CC(C)C)NC(=O)c1ccco1 (stereo partly drawn) [Compound n.3a, N-[(furan-2-yl)carbonyl]-L-leucyne-(1)-phosphotryptophan diethylester]",400,Fair,Fair
"CCOP(=O)(OCC)C(Cc1c[nH]c2ccccc12)NC(=O)[C@H](CC(C)C)NC(=O)c1ccc[nH]1 (stereo partly drawn) [Compound n.3b, N-[(Pyrrol-2-yl)carbonyl]-L-leucyl-(1)-phosphotryptophan diethylester]",220,Good,Good
"CCOP(=O)(OCC)C(Cc1c[nH]c2ccccc12)NC(=O)[C@H](CC(C)C)NC(=O)[C@@H]1CCCN1C(=O)OCc1ccccc1 (stereo partly drawn) [Compound n.3c, N-benzyloxycarbonyl-L-pyrolyl-L-eucyl-(1)-phosphtryptophan diethylester]",22000,Good,Good
"CCOP(=O)(OCC)C(Cc1c[nH]c2ccccc12)NC(=O)[C@H](CC(C)C)NC(=O)[C@@H]1CCC(=O)O1 (stereo partly drawn) [Compound n.3e, N-{[(S)-(5-oxo-tetrahydrofuran-2-yl)carbonyl]}-L-leucyl-(1)-phosphotryptophan diethylester]",550,Fair,Fair
"CCOP(=O)(OCC)C(Cc1c[nH]c2ccccc12)NC(=O)[C@H](CC(C)C)NC(=O)[C@@H]1CSC(=O)N1 (stereo partly drawn) [Compound n.3f, N-{[(R)-(2-oxo-thiazolidine-4-yl)carbonyl]}-L-leucyl-(1)-phosphotryptophan diethylester]",1000,Fair,Good
"CC(C)C[C@H](NC(=O)c1ccco1)C(=O)NC(Cc1c[nH]c2ccccc12)P(=O)(OCc1ccccc1)OCc1ccccc1 (stereo partly drawn) [Compound n.9, N-[(Furan-2-yl)carbonyl]-L-leucyl-(1)-phosphotryptophan dibenzylester]",7200,None,Fair
